# Results as given in ChEMBL document CHEMBL4507275, “Data for DCP probe BI-2545” (2021).
# How the values were obtained:
# [1] = target: Myosin-IIIb (Homo sapiens) (UniProt Q8WXR4); conditions: Compound concentration 1000.0 nM
# [2] = target: Mast/stem cell growth factor receptor Kit (Homo sapiens) (UniProt P10721); conditions: Compound concentration 1000.0 nM
# [3] = target: Eukaryotic translation initiation factor 2-alpha kinase 1 (Homo sapiens) (UniProt Q9BQI3); conditions: Compound concentration 1000.0 nM
# [4] = tested on: Receptor-type tyrosine-protein kinase FLT3 (Homo sapiens), P36888 [UNDEFINED MUTATION]; conditions: Compound concentration 1000.0 nM
# [5] = target: RAC-gamma serine/threonine-protein kinase (Homo sapiens) (UniProt Q9Y243); conditions: Compound concentration 1000.0 nM
# [6] = target: Receptor tyrosine-protein kinase erbB-2 (Homo sapiens) (UniProt P04626); conditions: Compound concentration 1000.0 nM
# Sequence of Receptor tyrosine-protein kinase erbB-2 (Homo sapiens) (P04626 whole entry, canonical isoform): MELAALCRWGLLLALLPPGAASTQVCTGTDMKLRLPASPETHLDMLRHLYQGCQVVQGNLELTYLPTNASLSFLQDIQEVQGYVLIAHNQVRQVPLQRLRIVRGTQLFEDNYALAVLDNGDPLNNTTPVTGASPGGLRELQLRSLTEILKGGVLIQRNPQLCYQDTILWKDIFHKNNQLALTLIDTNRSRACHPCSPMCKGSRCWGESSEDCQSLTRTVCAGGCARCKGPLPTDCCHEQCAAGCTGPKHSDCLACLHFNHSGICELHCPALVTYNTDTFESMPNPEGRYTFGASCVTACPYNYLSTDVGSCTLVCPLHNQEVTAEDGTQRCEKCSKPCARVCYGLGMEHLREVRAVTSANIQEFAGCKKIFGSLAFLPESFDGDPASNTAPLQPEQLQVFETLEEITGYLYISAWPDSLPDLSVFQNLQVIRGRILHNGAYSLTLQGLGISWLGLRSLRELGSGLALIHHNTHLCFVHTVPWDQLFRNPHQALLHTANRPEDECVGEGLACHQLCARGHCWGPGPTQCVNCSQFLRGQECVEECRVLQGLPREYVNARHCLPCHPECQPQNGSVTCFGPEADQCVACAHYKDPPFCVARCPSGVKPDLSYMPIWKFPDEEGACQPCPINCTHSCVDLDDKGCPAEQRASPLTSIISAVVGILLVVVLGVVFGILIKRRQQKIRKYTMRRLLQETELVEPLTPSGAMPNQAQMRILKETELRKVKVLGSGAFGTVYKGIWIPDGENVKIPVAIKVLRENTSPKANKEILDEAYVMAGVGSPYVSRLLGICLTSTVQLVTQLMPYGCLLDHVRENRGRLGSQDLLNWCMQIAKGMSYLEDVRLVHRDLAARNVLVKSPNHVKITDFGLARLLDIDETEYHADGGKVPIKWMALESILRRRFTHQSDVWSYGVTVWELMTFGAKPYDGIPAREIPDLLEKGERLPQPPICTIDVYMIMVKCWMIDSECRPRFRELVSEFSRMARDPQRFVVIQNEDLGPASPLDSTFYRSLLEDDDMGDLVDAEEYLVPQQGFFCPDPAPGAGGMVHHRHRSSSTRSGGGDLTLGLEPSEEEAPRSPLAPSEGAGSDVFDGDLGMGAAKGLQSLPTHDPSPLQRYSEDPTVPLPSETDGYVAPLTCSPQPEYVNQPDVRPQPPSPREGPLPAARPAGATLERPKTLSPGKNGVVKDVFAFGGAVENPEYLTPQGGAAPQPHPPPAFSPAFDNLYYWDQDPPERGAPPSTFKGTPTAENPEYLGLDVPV
# [7] = target: Casein kinase I isoform delta (Homo sapiens) (UniProt P48730); conditions: Compound concentration 1000.0 nM
# Sequence of Casein kinase I isoform delta (Homo sapiens) (P48730 whole entry, looked up, canonical isoform): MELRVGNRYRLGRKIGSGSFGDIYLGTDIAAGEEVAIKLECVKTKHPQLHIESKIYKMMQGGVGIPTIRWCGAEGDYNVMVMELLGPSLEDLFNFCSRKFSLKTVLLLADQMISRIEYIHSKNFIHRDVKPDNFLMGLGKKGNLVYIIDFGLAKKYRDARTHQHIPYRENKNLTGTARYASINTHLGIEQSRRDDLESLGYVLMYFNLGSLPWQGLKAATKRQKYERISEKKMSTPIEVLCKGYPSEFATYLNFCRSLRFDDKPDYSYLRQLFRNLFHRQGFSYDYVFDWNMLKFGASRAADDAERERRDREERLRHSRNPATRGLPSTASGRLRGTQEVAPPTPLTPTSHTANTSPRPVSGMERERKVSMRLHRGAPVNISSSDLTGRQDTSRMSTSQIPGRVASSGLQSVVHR
# [8] = target: Macrophage colony-stimulating factor 1 receptor (Homo sapiens) (UniProt P07333); conditions: Compound concentration 1000.0 nM
# [9] = target: Ephrin type-A receptor 6 (Homo sapiens) (UniProt Q9UF33); conditions: Compound concentration 1000.0 nM
# [10] = target: RAC-alpha serine/threonine-protein kinase (Homo sapiens) (UniProt P31749); conditions: Compound concentration 1000.0 nM
# [11] = tested on: Phosphatidylinositol 4,5-bisphosphate 3-kinase catalytic subunit alpha isoform (Homo sapiens), P42336 [Q546K]; conditions: Compound concentration 1000.0 nM
# [12] = target: Insulin receptor-related protein (Homo sapiens) (UniProt P14616); conditions: Compound concentration 1000.0 nM
# [13] = target: Calcium/calmodulin-dependent protein kinase type 1G (Homo sapiens) (UniProt Q96NX5); conditions: Compound concentration 1000.0 nM
# [14] = target: Phosphatidylinositol 5-phosphate 4-kinase type-2 beta (Homo sapiens) (UniProt P78356); conditions: Compound concentration 1000.0 nM
# [15] = target: Tyrosine-protein kinase HCK (Homo sapiens) (UniProt P08631); conditions: Compound concentration 1000.0 nM
# [16] = target: Mitogen-activated protein kinase kinase kinase 12 (Homo sapiens) (UniProt Q12852); conditions: Compound concentration 1000.0 nM
# [17] = target: Serine/threonine-protein kinase NLK (Homo sapiens) (UniProt Q9UBE8); conditions: Compound concentration 1000.0 nM
# [18] = target: Tyrosine-protein kinase JAK3 (Homo sapiens) (UniProt P52333); conditions: Compound concentration 1000.0 nM
# [19] = target: Myosin-IIIa (Homo sapiens) (UniProt Q8NEV4); conditions: Compound concentration 1000.0 nM
# [20] = target: Serine/threonine-protein kinase PAK 3 (Homo sapiens) (UniProt O75914); conditions: Compound concentration 1000.0 nM
# [21] = target: BMP-2-inducible protein kinase (Homo sapiens) (UniProt Q9NSY1); conditions: Compound concentration 1000.0 nM
# [22] = target: Casein kinase I isoform epsilon (Homo sapiens) (UniProt P49674); conditions: Compound concentration 1000.0 nM
# [23] = tested on: Tyrosine-protein kinase ABL1 (Homo sapiens), P00519 [F317I]; conditions: Compound concentration 1000.0 nM
# [24] = target: Proto-oncogene tyrosine-protein kinase ROS (Homo sapiens) (UniProt P08922); conditions: Compound concentration 1000.0 nM
# [25] = tested on: Mast/stem cell growth factor receptor Kit (Homo sapiens), P10721 [D816V]; conditions: Compound concentration 1000.0 nM
# Sequence of Mast/stem cell growth factor receptor Kit (Homo sapiens), P10721 [D816V] (P10721 whole entry D816V): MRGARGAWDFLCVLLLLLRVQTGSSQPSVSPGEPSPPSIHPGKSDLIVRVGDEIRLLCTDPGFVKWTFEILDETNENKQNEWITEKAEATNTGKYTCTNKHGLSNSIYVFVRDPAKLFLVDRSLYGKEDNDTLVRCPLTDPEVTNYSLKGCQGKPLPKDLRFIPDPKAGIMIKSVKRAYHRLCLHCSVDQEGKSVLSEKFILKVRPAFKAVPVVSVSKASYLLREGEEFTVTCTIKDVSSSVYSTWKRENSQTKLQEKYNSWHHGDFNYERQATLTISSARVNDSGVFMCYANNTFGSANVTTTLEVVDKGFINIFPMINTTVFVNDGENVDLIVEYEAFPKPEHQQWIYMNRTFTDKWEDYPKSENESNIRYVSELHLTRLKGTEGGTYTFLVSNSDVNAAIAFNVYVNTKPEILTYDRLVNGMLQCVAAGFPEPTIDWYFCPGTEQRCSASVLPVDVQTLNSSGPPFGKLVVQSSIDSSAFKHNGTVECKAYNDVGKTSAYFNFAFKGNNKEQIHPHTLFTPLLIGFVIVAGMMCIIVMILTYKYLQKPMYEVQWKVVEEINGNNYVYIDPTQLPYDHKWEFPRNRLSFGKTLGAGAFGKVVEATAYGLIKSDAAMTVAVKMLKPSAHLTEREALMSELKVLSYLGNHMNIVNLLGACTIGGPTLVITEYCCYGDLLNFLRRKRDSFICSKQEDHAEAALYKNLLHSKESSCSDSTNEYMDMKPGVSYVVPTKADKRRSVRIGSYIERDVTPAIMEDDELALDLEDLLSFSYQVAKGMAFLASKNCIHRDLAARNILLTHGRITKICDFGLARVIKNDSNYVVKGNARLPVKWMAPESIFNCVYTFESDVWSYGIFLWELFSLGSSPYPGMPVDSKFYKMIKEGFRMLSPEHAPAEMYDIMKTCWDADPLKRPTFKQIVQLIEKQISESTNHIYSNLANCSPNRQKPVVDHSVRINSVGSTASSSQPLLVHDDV
# [26] = target: 5-hydroxytryptamine receptor 6 (Homo sapiens) (UniProt P50406); conditions: Compound concentration 10.0 uM
# [27] = species on record: Rattus norvegicus; conditions: Compound concentration 10.0 uM
# [28] = tested on: Phosphatidylinositol 4,5-bisphosphate 3-kinase catalytic subunit alpha isoform (Homo sapiens), P42336 [H1047L]; conditions: Compound concentration 1000.0 nM
# [29] = target: Phosphatidylinositol 5-phosphate 4-kinase type-2 gamma (Homo sapiens) (UniProt Q8TBX8); conditions: Compound concentration 1000.0 nM
# [30] = target: LIM domain kinase 2 (Homo sapiens) (UniProt P53671); conditions: Compound concentration 1000.0 nM
# [31] = target: Phosphatidylinositol 4-phosphate 3-kinase C2 domain-containing subunit beta (Homo sapiens) (UniProt O00750); conditions: Compound concentration 1000.0 nM
# [32] = target: Tyrosine-protein kinase BTK (Homo sapiens) (UniProt Q06187); conditions: Compound concentration 1000.0 nM
# [33] = target: Dual specificity protein kinase CLK1 (Homo sapiens) (UniProt P49759); conditions: Compound concentration 1000.0 nM
# [34] = target: Dual specificity mitogen-activated protein kinase kinase 4 (Homo sapiens) (UniProt P45985); conditions: Compound concentration 1000.0 nM
# Sequence of Dual specificity mitogen-activated protein kinase kinase 4 (Homo sapiens) (P45985 whole entry): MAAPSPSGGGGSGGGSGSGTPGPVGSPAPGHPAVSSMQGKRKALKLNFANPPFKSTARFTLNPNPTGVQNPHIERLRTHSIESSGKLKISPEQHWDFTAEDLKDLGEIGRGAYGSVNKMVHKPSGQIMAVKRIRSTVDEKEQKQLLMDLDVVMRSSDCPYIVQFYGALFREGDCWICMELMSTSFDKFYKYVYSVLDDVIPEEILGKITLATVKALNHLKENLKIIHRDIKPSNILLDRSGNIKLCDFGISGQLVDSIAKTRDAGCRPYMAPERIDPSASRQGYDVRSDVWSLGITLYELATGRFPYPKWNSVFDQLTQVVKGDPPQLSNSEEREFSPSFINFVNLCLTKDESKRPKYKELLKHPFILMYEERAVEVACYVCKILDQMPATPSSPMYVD
# [35] = tested on: ALK tyrosine kinase receptor (Homo sapiens), Q9UM73 [L1196M]; conditions: Compound concentration 1000.0 nM
# [36] = target: Serine/threonine-protein kinase LATS1 (Homo sapiens) (UniProt O95835); conditions: Compound concentration 1000.0 nM
# [37] = target: Hepatocyte growth factor receptor (Homo sapiens) (UniProt P08581); conditions: Compound concentration 1000.0 nM
# Sequence of Hepatocyte growth factor receptor (Homo sapiens) (P08581 whole entry): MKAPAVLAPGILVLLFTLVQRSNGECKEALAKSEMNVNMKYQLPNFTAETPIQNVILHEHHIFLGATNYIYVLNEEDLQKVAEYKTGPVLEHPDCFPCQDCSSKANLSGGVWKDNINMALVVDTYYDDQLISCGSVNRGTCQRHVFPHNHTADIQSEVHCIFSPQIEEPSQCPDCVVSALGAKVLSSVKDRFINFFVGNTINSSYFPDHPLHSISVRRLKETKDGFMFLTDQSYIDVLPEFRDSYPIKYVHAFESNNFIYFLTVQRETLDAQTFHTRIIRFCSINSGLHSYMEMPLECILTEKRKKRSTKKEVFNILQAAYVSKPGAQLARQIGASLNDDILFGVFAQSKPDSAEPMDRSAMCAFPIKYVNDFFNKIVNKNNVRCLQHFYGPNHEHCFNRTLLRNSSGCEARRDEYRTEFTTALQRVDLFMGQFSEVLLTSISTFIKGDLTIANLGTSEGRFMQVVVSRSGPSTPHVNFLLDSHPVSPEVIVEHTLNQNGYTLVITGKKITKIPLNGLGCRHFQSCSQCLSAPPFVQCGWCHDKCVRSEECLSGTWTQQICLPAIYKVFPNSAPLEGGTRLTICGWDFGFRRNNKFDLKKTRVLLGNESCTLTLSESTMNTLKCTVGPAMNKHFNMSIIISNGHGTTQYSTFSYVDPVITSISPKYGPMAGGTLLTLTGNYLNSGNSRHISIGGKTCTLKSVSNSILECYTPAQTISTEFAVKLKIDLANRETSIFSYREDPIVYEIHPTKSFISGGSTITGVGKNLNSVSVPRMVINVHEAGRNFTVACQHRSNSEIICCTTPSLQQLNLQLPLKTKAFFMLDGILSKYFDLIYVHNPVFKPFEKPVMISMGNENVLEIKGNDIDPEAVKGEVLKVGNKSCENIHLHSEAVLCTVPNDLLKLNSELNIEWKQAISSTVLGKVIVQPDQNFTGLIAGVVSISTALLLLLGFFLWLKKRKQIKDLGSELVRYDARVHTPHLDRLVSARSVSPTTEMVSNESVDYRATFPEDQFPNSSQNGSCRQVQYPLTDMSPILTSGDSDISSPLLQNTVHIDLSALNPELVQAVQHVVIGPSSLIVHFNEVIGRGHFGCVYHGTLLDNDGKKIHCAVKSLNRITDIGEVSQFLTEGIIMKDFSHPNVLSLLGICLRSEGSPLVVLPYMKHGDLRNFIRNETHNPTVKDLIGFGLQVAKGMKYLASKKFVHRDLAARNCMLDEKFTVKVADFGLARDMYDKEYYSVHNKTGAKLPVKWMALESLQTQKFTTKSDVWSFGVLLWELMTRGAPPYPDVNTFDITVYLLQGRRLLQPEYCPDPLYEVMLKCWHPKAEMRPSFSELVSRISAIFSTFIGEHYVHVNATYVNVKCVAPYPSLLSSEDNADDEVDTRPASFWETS
# [38] = target: Cyclin-dependent kinase-like 2 (Homo sapiens) (UniProt Q92772); conditions: Compound concentration 1000.0 nM
# [39] = tested on: Receptor-type tyrosine-protein kinase FLT3 (Homo sapiens), P36888 [K663Q]; conditions: Compound concentration 1000.0 nM
# [40] = target: Phosphatidylinositol 3-kinase catalytic subunit type 3 (Homo sapiens) (UniProt Q8NEB9); conditions: Compound concentration 1000.0 nM
# [41] = target: Uncharacterized serine/threonine-protein kinase SBK3 (Homo sapiens) (UniProt P0C264); conditions: Compound concentration 1000.0 nM
# [42] = tested on: Phosphatidylinositol 4,5-bisphosphate 3-kinase catalytic subunit alpha isoform (Homo sapiens), P42336 [C420R]; conditions: Compound concentration 1000.0 nM
# [43] = target: Mitogen-activated protein kinase 4 (Homo sapiens) (UniProt P31152); conditions: Compound concentration 1000.0 nM
# Sequence of Mitogen-activated protein kinase 4 (Homo sapiens) (P31152 whole entry): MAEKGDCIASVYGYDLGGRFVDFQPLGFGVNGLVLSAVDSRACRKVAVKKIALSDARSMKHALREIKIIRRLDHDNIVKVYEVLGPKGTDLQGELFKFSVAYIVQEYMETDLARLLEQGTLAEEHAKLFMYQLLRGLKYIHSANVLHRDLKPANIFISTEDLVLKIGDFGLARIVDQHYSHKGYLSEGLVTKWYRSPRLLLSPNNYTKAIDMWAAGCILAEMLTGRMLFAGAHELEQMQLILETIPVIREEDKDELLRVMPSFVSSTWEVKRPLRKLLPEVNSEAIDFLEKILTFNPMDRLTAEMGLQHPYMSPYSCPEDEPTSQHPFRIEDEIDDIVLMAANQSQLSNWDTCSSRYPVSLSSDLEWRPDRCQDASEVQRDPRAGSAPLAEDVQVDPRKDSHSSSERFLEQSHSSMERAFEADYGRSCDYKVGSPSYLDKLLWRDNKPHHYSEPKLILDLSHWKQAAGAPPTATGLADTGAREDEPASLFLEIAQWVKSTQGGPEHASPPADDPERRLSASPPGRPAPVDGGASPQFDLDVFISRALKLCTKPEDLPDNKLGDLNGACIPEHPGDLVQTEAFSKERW
# [44] = target: Homeodomain-interacting protein kinase 4 (Homo sapiens) (UniProt Q8NE63); conditions: Compound concentration 1000.0 nM
# [45] = target: Ephrin type-A receptor 5 (Homo sapiens) (UniProt P54756); conditions: Compound concentration 1000.0 nM
# Sequence of Mast/stem cell growth factor receptor Kit (Homo sapiens) (P10721 whole entry): as the sequence (P10721 whole entry D816V) above, with V816D counted along it
structure (smiles),measurement,setting,value
Cc1nccc(COC(=O)N2C[C@@H]3[C@@H](CNC(=O)c4ccc5[nH]nnc5c4)[C@@H]3C2)n1 [BI 3017],residual activity,[1],100%
same,residual activity,[2],79%
same,residual activity,[3],100%
same,residual activity,[4],100%
same,residual activity,[5],100%
same,residual activity,[6],99%
same,residual activity,[7],97%
same,residual activity,[8],88%
same,residual activity,[9],98%
same,residual activity,[10],100%
same,residual activity,[11],85%
same,residual activity,[12],100%
same,residual activity,[13],100%
same,residual activity,[14],100%
same,residual activity,[15],99%
same,residual activity,[16],72%
same,residual activity,[17],41%
same,residual activity,[18],96%
same,residual activity,[19],99%
same,residual activity,[20],75%
same,residual activity,[21],100%
same,residual activity,[22],100%
same,residual activity,[23],100%
same,residual activity,[24],100%
same,residual activity,[25],100%
same,inhibition,[26],26.1%
same,inhibition,[27],-4.4%
same,residual activity,[28],79%
same,residual activity,[29],100%
same,residual activity,[30],92%
same,residual activity,[31],97%
same,residual activity,[32],99%
same,residual activity,[33],100%
same,residual activity,[34],100%
same,residual activity,[35],93%
same,residual activity,[36],89%
same,residual activity,[37],94%
same,residual activity,[38],95%
same,residual activity,[39],100%
same,residual activity,[40],94%
same,residual activity,[41],54%
same,residual activity,[42],97%
same,residual activity,[43],94%
same,residual activity,[44],84%
same,residual activity,[45],93%
O=C(NC[C@@H]1[C@H]2CN(C(=O)OCc3cc(C(F)(F)F)cc(C(F)(F)F)c3)C[C@@H]12)c1ccc2[nH]nnc2c1 [BI 2545],residual activity,[1],100%
same,residual activity,[2],90%
same,residual activity,[3],91%
same,residual activity,[4],83%
same,residual activity,[5],87%
same,residual activity,[6],100%
same,residual activity,[7],100%
same,residual activity,[8],99%
same,residual activity,[9],69%
same,residual activity,[10],100%
same,residual activity,[11],78%
same,residual activity,[12],83%
same,residual activity,[13],100%
same,residual activity,[14],100%
same,residual activity,[15],100%
same,residual activity,[16],100%
same,residual activity,[17],100%
same,residual activity,[18],69%
same,residual activity,[19],98%
same,residual activity,[20],100%
same,residual activity,[21],85%
same,residual activity,[22],100%
same,residual activity,[23],89%
same,residual activity,[24],100%
same,residual activity,[25],93%
same,inhibition,[26],28.9%
same,inhibition,[27],63.7%
same,residual activity,[28],100%
same,residual activity,[29],100%
same,residual activity,[30],83%
same,residual activity,[31],65%
same,residual activity,[32],100%
same,residual activity,[33],87%
same,residual activity,[34],95%
same,residual activity,[35],100%
same,residual activity,[36],96%
same,residual activity,[37],100%
same,residual activity,[38],95%
same,residual activity,[39],98%
same,residual activity,[40],72%
same,residual activity,[41],100%
same,residual activity,[42],95%
same,residual activity,[43],80%
same,residual activity,[44],100%
same,residual activity,[45],100%
